Results on one molecule are retold here after US20180057530A1, “CYCLIC PEPTIDE COMPOUND, AND PREPARATION AND USE THEREOF” (Zhejiang Hisun Pharmaceutical Co., Ltd., priority 2015, published 2018).

The subject of experiment [1] is Human breast cancer cells (MDA-MB-231). The experiment in a line: MTT tumor cell growth inhibition, MDA-MB-231. The class given is cell-based. As to conditions: MDA-MB-231, MTT, 72 hours, relative IC50. The text has this:
(§1) The tetrazolium salt (MTT) reduction method was used to test the activity of the compounds of the present invention. Human breast cancer cells (MDA-MB-231) (CAS cell library; catalog number: TCHu227), human lung cancer cells (A549) (ATCC® Number: CRM-CCL-185™), human colon cancer cells (HCT-116) (CAS cell library; catalog number: TCHu99), acute monocytic leukemia cells (MV4-11) (ATCC® Number: CRL-9591™), tissue cell lymphoma cells (U-937) (CAS cell library; catalog number: TCHu159), human acute promyelocytic leukemia cells (HL-60) (ATCC® Number: CCL-240™), chronic myelogenous leukemia cells (of K562) (CAS cell library; catalog number: TCHu191), human hepatocellular carcinoma cells (BEL-7404) (CAS cell library; catalog number: TCHu64), human pancreatic cancer cells (BxPC3) (ATCC® Number: […])) and human prostate cancer cells (PC-3) (ATCC®Number: […]) were inoculated in 96-well plates, 90 μL/well, with 3000 to 8000 cells in respective well; in the first row of plate, 100 μL/well culture medium was added; the 96-well plate was pre-incubated in an incubator at 37° C., 5% CO2, and 100% relative humidity for 24 hours.
(§2) A compound was weighed and configured to a 10 mM/L stock solution, and the compound was diluted three-fold sequentially from the highest concentration of 2 millimoles (mM); 95 μl the corresponding cell medium was added to each well of a V-bottom dispensing plate; 5 μl of the compound on a 200× plate was transferred to a 10× dispensing plate according to the concentration; 5 μl of dimethylsulfoxide (DMSO) was evenly mixed in the corresponding 95 μl cell culture medium as a vehicle control. 10 μl of the compound-medium in each well of the 10× dispensing plate was added to a 96-well plate already plated with cells. […]
(§3) After the compound for cells was treated for 72 hours, 20 microliters of 5 mg/ml MTT was added to each well; all the steps need to be aseptic. […] The absorbance at 490 nm was read on a SpectraMax M2e instrument. The compound activity (relative IC50) was calculated using GraphPad Prism software.

Experiment [2] deals with acute monocytic leukemia cells (MV4-11). As to the kind of experiment: MTT tumor cell growth inhibition, MV4-11. Format: cell-based. As to conditions: Homo sapiens; MV4-11, MTT, 72 hours, relative IC50.
Source text: as §1, §2, §3

In experiment [3] the test system is tissue cell lymphoma cells (U-937). The experiment in a line: MTT tumor cell growth inhibition, U-937. As to conditions: Homo sapiens; U-937, MTT, 72 hours, relative IC50. The class given is cell-based.
Source text: as §1, §2, §3

Experiment [4] deals with human hepatocellular carcinoma cells (BEL-7404). As to the kind of experiment: MTT tumor cell growth inhibition, BEL-7404. As to conditions: BEL-7404, MTT, 72 hours, relative IC50. Format: cell-based.
Source text: as §1, §2, §3

The subject of experiment [5] is human prostate cancer cells (PC-3). The experiment in a line: MTT tumor cell growth inhibition, PC-3. Format: cell-based. As to conditions: PC-3, MTT, 72 hours, relative IC50.
Source text: as §1, §2, §3

The next experiment concerns MDA-MB-231 breast cancer. As to the kind of experiment: In vivo efficacy study of compound B, xenografted MDA-MB-231 breast cancer. Details: species or system BALB/c nude mice. The note with it: once a week for four weeks. The procedure: Female BALB/C nude mice 6 weeks to 8 weeks old and weighing about 19 g to 29 g were taken and raised for one week (supplier: Beijing Vital River Laboratory Animal Technology Co., Ltd.) MDA-MB-231 (ATCC® Number: HTB-26™) breast cancer cells were cultured in vitro; the culture conditions were: 10% fetal bovine serum was added to an L-15 medium, 37° C., and 0% CO2. Passage was performed twice a week. When the cells were in the exponential growth phase, the cells were collected, counted, and inoculated. […] The cells were suspended in phosphate buffered saline (PBS) and Matrigel (1:1) was added. A total of 50 mice were inoculated. […] The experimental indicator was to examine whether the tumor growth was inhibited, delayed, or subsided. Tumor diameter was measured three times a week with a vernier caliper. The formula for calculating tumor volume is as follows: […] The antitumor efficacy of the compound was evaluated with T/C (%) and of TGI. […] T0 indicates the mean tumor volume of the treatment group at the time of administration by cage; Vi indicates the mean tumor volume of the vehicle group on the same day; V0 indicates the mean tumor volume of the vehicle group at the time of administration by cage. At the end of the experiment, the tumors were stripped, weighed, and photographed.

Several values for one entry are separate records, joined by “and”; a condition that tells them apart may be missing. Identical values can stand only once.

For `C/C=C1\NC(=O)[C@H]2CSSCC/C=C/[C@H](CC(=O)N[C@H](C(C)C)C(=O)N2)OC(=O)[C@H](C(C)C)NC1=O` [Romidepsin, reference compound], the IC50 (usually the concentration that gives 50% inhibition) in experiment [1] came to 3.6 nM; in experiment [2], 6.8 nM; in experiment [3], 7.2 nM; in experiment [4], 6.4 nM; in experiment [5], 7.1 nM. The “Day 28 tumor volume” value in the experiment with MDA-MB-231 breast cancer (6.6 mg/kg intravenous, mean ± standard error) is 260 mm^3 and 260 ± 103 mm^3. Moreover, in the experiment with MDA-MB-231 breast cancer (day 28, 6.6 mg/kg intravenous), the “T/C (%)” value was found to be 11.4%. The “TGI (%)” value in the experiment on MDA-MB-231 breast cancer (day 28, 6.6 mg/kg intravenous) was found to be 88.6%.
